34 molecules from patent publication US7812183B2, “Benzopyran derivatives as potassium channel openers” (Janssen Pharmaceutica NV, priority 2005, dated 2010) can be followed below.

SMILES strings stand for the structures.

For this assay, the target named is T1, KATP channels (Homo sapiens, UniProt O60706+Q14654).
T1 construct: TE671 human medulloblastoma cells were obtained from ATCC; host or cells: TE671 human medulloblastoma cells
T1 sequence (O60706 1-1549 isoform O60706-2): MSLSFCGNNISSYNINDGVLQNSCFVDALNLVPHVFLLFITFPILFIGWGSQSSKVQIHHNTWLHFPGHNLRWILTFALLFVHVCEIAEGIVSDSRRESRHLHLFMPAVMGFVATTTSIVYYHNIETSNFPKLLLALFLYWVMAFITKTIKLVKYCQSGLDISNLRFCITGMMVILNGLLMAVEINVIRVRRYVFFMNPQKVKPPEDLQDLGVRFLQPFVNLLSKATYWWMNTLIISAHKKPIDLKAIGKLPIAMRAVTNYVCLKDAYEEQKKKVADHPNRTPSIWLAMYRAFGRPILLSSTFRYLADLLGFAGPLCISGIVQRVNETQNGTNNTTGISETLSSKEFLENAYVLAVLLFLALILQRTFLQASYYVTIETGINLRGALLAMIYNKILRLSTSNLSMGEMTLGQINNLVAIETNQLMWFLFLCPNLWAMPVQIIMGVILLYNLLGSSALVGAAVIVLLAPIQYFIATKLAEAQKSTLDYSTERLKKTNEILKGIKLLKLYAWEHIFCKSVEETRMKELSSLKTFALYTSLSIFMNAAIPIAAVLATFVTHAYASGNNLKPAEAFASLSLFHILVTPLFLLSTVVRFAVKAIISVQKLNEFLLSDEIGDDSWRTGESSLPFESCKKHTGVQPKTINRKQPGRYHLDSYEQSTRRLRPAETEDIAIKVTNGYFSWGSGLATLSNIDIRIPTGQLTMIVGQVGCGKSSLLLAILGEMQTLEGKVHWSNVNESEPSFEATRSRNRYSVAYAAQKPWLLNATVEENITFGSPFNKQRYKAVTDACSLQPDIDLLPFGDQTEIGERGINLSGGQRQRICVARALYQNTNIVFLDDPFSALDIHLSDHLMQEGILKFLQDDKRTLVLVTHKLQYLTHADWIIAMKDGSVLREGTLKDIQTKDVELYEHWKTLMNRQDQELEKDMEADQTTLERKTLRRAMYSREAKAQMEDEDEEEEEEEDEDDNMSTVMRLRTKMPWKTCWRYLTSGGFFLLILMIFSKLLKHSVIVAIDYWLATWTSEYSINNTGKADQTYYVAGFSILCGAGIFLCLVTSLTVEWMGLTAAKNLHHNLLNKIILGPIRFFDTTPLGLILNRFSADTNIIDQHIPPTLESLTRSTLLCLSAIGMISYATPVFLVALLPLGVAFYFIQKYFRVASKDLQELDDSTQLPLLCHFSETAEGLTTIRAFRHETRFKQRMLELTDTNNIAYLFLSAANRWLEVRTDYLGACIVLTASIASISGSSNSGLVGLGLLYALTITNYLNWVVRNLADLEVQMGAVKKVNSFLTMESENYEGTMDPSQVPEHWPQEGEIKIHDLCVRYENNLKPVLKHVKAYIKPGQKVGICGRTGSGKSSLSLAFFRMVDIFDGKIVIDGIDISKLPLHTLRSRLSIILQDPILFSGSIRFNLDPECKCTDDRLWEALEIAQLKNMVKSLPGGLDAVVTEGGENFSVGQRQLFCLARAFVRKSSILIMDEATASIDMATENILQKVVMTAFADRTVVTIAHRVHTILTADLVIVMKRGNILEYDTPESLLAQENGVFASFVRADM
T1 sequence (Q14654 whole entry): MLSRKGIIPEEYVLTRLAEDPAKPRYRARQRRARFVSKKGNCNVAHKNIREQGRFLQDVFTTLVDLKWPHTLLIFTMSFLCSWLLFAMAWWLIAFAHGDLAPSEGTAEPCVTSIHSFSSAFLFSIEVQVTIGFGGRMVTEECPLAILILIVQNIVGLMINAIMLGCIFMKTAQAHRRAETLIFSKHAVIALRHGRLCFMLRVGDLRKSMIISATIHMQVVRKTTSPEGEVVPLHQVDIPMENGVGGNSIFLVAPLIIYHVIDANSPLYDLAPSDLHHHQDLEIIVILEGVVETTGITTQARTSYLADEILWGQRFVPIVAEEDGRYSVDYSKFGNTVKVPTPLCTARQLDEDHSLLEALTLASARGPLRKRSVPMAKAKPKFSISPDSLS
Put plainly: Potassium Channel Assay (FLIPR membrane potential, TE671 cells). Particulars: TE671 human medulloblastoma cells, Membrane Potential Assay Dye, room temperature, hyperpolarization from KATP channel opening. The format is cell-based. Summed up: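 Human medulloblastoma cells plated day before at 50K/well, loaded 15–30 min with membrane potential dye in HEPES buffer (2 mM KCl, 2 mM CaCl2, 5 mM glucose) at room temperature. Compound-induced hyperpolarization (fluorescence decrease) monitored 3 min; 5 μM glyburide then added to confirm KATP opener specificity.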
Molecule `CCN(CC)S(=O)(=O)c1ccc2c(c1)[C@@H](Nc1noc3ccc(Cl)cc13)[C@H](O)C(C)(C)O2` (racemic) [Compound 80, 4R-(5-Chloro-benzo[d]isoxazol-3-ylamino)-3S-hydroxy-2,2-dimethyl-chroman-6-sulfonic acid diethylamide] gave a concentration for a half-maximal effect (EC50) of more than 30 µM.
The value for `CC1(C)Oc2ccc(C#N)cc2[C@@H](Oc2noc3ccc(Cl)cc23)[C@@H]1O` [Compound 38, (3S,4R)-4-(5-Chloro-benzo[d]isoxazol-3-yloxy)-3-hydroxy-2,2-dimethyl-chroman-6-carbonitrile] was 7.07 µM; that for `CC1(C)Oc2ccc(S(=O)(=O)N3CCCCC3)cc2[C@@H](Nc2noc3ccc(Cl)cc23)[C@@H]1O` [Compound 88, 4R-(5-Chloro-benzo[d]isoxazol-3-ylamino)-2,2-dimethyl-6-(piperidine-1-sulfonyl)-chroman-3S-ol] was more than 30 µM; that for `CCN(CC)S(=O)(=O)c1ccc2c(c1)[C@@H](Oc1noc3ccc(Cl)cc13)[C@H](O)C(C)(C)O2` [Compound 85, 4R-(5-Chloro-benzo[d]isoxazol-3-yloxy)-3S-hydroxy-2,2-dimethyl-chroman-6-sulfonic acid diethylamide] was more than 30 µM.
Consider `CC1(C)Oc2ccc(C#N)cc2[C@@H](Oc2ncnc3ccccc23)[C@@H]1O` [Compound 40, (3S,4R)-3-Hydroxy-2,2-dimethyl-4-(quinazolin-4-yloxy)-chroman-6-carbonitrile], for which the EC50 stood at 1.94 µM.
In turn, `CC1(C)Oc2ccc(C#N)cc2[C@@H](Oc2ccn(-c3ccc(Cl)cc3)n2)[C@@H]1O` (racemic) [Compound 55, 4-[1-(4-Chloro-phenyl)-1H-pyrazol-3-yloxy]-3-hydroxy-2,2-dimethyl-chroman-6-carbonitrile] came in with an EC50 of 8.82 µM.
As to `CC1(C)Oc2cc(Cl)c(Cl)cc2[C@@H](n2oc3cc(Cl)ccc3c2=O)[C@@H]1O` [Compound 94, 6-Chloro-2-(6,7-dichloro-3S-hydroxy-2,2-dimethyl-chroman-4-yl)-R-benzo[d]isoxazol-3-one], the midpoint of the response, the EC50, lay at 10.3 µM.
The value for `CC1(C)Oc2ccncc2[C@@H](Nc2nc3cc(Cl)ccc3o2)[C@@H]1O` (racemic) [Compound 107, 4-(5-Chloro-benzoxazol-2-ylamino)-2,2-dimethyl-3,4-dihydro-2H-pyrano[3,2-c]pyridin-3-ol] was more than 30 µM; that for `CC1(C)Oc2ccc(C#N)cc2[C@@H](NP(=O)(c2ccccc2)c2ccccc2)[C@@H]1O` [Compound 65] was more than 30 µM.
For `CC1(C)Oc2ccc(C#N)cc2[C@@H](Oc2nsc3ccccc23)[C@@H]1O` (racemic) [Compound 20, 4-(Benzo[d]isothiazol-3-yloxy)-3-hydroxy-2,2-dimethyl-chroman-6-carbonitrile] the value was 16.1 µM.
Consider `CC1(C)Oc2ccc(Cl)cc2[C@@H](OC2=NN(c3ccccc3)CC2)[C@@H]1O` (racemic) [Compound 59, 6-Chloro-2,2-dimethyl-4-(1-phenyl-4,5-dihydro-1H-pyrazol-3-yloxy)-chroman-3-ol], for which the EC50 amounted to 16.6 µM.
For `CC1(C)Oc2ccc(C#N)cc2[C@@H](Oc2noc3ccccc23)[C@@H]1O` [Compound 23, (3S,4R)-4-(Benzo[d]isoxazol-3-yloxy)-3-hydroxy-2,2-dimethyl-chroman-6-carbonitrile] the value was 6.94 µM; for `N#Cc1ccc2c(c1)[C@@H](NC(=O)c1cccc(Cl)c1)[C@H](OC(=O)c1cccc(Cl)c1)C1(CCS(=O)(=O)CC1)O2` [Compound 202, (3S,4R)-3-Chloro-benzoic acid 4-(3-chloro-benzoylamino)-6-cyano-2,2-(tetrahydro-4-sulfonylpyranyl)-chroman-3-yl ester], more than 30 µM.
Molecule `CC1(C)Oc2ccc(C#N)cc2[C@@H](Sc2nccc(C(F)(F)F)n2)[C@@H]1O` [Compound 43, 3S-Hydroxy-2,2-dimethyl-4R-(4-trifluoromethyl-pyrimidin-2-ylsulfanyl)-chroman-6-carbonitrile] came in with an EC50 of more than 30 µM.
The value for `CCN(CC)S(=O)(=O)c1ccc2c(c1)[C@@H](Nc1noc3c(Cl)cccc13)[C@H](O)C(C)(C)O2` [Compound 82, 4R-(7-Chloro-benzo[d]isoxazol-3-ylamino)-3S-hydroxy-2,2-dimethyl-chroman-6-sulfonic acid diethylamide] was 26.6 µM.
`CC1(C)Oc2ccc(C#N)cc2[C@@H](Nc2nc(=O)c3cc(Cl)ccc3[nH]2)[C@@H]1O` [Compound 64, (3S,4R)-4-(6-Chloro-4-oxo-1,4-dihydro-quinazolin-2-ylamino)-3-hydroxy-2,2-dimethyl-chroman-6-carbonitrile] registered an EC50 of 9.12 µM.
Consider `CC1(C)Oc2ccc(C#N)cc2[C@@H](Nc2noc3ccc(Cl)cc23)[C@@H]1O` [Compound 39, (3S,4R)-4-(5-Chloro-benzo[d]isoxazol-3-ylamino)-3-hydroxy-2,2-dimethyl-chroman-6-carbonitrile], for which the EC50 was 0.61 µM.
For `CC1(C)Oc2ccc(S(=O)(=O)c3ccccc3)cc2[C@@H](Nc2noc3cc(Cl)ccc23)[C@@H]1O` [Compound 73, (3S,4R)-6-Benzenesulfonyl-4R-(6-chloro-benzo[d]isoxazol-3-ylamino)-2,2-dimethyl-chroman-3S-ol] the value was 5.19 µM; for `CC1(C)C=C(Oc2ccc(-c3ccccc3)nn2)c2cc(C#N)ccc2O1` [Compound 53, 2,2-Dimethyl-4-(6-phenyl-pyridazin-3-yloxy)-2H-chromene-6-carbonitrile], 9.91 µM.
The value for `CC1(C)Oc2ccc(C#N)cc2[C@@H](Oc2ccc(-c3ccc(Cl)cc3)nn2)[C@@H]1O` (racemic) [Compound 56, 4-[6-(4-Chloro-phenyl)-pyridazin-3-yloxy]-3-hydroxy-2,2-dimethyl-chroman-6-carbonitrile] was more than 30 µM.
For the molecule `CC1(C)Oc2ccc(C#N)cc2[C@@H](S(=O)(=O)c2nc3cc(Cl)c(F)cc3[nH]2)[C@@H]1O` [Compound 72, 4R-(5-Chloro-6-fluoro-1H-benzoimidazole-2-sulfonyl)-3S-hydroxy-2,2-dimethyl-chroman-6-carbonitrile], the EC50 turned out to be 20.2 µM.
The value for `CC1(C)Oc2ccc(C#N)cc2[C@@H](Nc2noc3cc(Cl)ccc23)[C@@H]1O` [Compound 67, (3S,4R)-4-(6-Chloro-benzo[d]isoxazol-3-ylamino)-3-hydroxy-2,2-dimethyl-chroman-6-carbonitrile] was 6.18 µM.
In turn, `CCN(CC)S(=O)(=O)c1ccc2c(c1)[C@@H](n1oc3ccc(Cl)cc3c1=O)[C@H](O)C(C)(C)O2` [Compound 86, 4R-(5-Chloro-3-oxo-3H-benzo[d]isoxazol-2-yl)-3S-hydroxy-2,2-dimethyl-chroman-6-sulfonic acid diethylamide] showed an EC50 of more than 30 µM.
In turn, `CC1(C)Oc2ccncc2[C@@H](Nc2nc3cc(Cl)ccc3s2)[C@@H]1O` (racemic) [Compound 106, 4-(5-Chloro-benzothiazol-2-ylamino)-2,2-dimethyl-3,4-dihydro-2H-pyrano[3,2-c]pyridin-3-ol] returned an EC50 of 19.5 µM.
`CC1(C)C=C(n2c(N)nc3cc(Cl)ccc32)c2cc(C#N)ccc2O1` [Compound 45, 4-(2-Amino-5-chloro-benzoimidazol-1-yl)-2,2-dimethyl-2H-chromene-6-carbonitrile] registered an EC50 of more than 30 µM.
Turning to `CC1(C)Oc2ccc(C#N)cc2[C@@H](n2oc3cc(Cl)ccc3c2=O)[C@@H]1O` [Compound 117, 4R-(6-Chloro-3-oxo-3H-benzo[d]isoxazol-2-yl)-3S-hydroxy-2,2-dimethyl-chroman-6-carbonitrile], the EC50 was more than 30 µM.
The value for `CC1(C)C=C(n2nc(-c3ccc(Cl)cc3)ccc2=O)c2cc(C#N)ccc2O1` [Compound 57, 4-[3-(4-Chloro-phenyl)-6-oxo-6H-pyridazin-1-yl]-2,2-dimethyl-2H-chromene-6-carbonitrile] was 19.9 µM; that for `CCN(CC)C(=O)c1ccc2c(c1)[C@@H](Oc1noc3cc(Cl)ccc13)[C@H](O)C(C)(C)O2` [Compound 90, 4R-(6-Chloro-benzo[d]isoxazol-3-yloxy)-3S-hydroxy-2,2-dimethyl-chroman-6-carboxylic acid diethylamide] was more than 30 µM; that for `CC1(C)Oc2ccc(C#N)cc2[C@@H](N2CCN(c3ccc([N+](=O)[O-])cc3)CC2)[C@@H]1O` (racemic) [Compound 51, 3-Hydroxy-2,2-dimethyl-4-[4-(4-nitro-phenyl)-piperazin-1-yl]-chroman-6-carbonitrile] was more than 30 µM.
The value for `CC1(C)Oc2ccc(C#N)cc2[C@@H](Nc2nc3cc(Cl)ccc3o2)[C@@H]1O` (racemic) [Compound 2, 4-(5-Chloro-benzooxazol-2-ylamino)-3-hydroxy-2,2-dimethyl-chroman-6-carbonitrile] was 16.5 µM; that for `CC1(C)Oc2ccc(C#N)cc2[C@@H](n2nc(N)c3ccc(Br)cc32)[C@@H]1O` [Compound 35, 4R-(3-Amino-6-bromo-indazol-1-yl)-3S-hydroxy-2,2-dimethyl-chroman-6-carbonitrile] was 4.4 µM; that for `CC1(C)Oc2ccncc2[C@@H](Oc2ccn(-c3ccc(Cl)cc3)n2)[C@@H]1O` (racemic) [Compound 109, 4-[1-(4-Chloro-phenyl)-1H-pyrazol-3-yloxy]-2,2-dimethyl-3,4-dihydro-2H-pyrano[3,2-c]pyridin-3-ol] was 26.4 µM.
On to `CC1(C)Oc2cc(Cl)c(Cl)cc2[C@@H](Oc2noc3cc(Cl)ccc23)[C@@H]1O` [Compound 93, 6,7-Dichloro-4R-(6-chloro-benzo[d]isoxazol-3-yloxy)-2,2-dimethyl-chroman-3S-ol], for which the EC50 was determined as 20.5 µM.
For `CC1(C)Oc2ccc(Cl)cc2[C@@H](Oc2ccn(-c3ccccc3)n2)[C@@H]1O` (racemic) [Compound 60, 6-Chloro-2,2-dimethyl-4-(1-phenyl-1H-pyrazol-3-yloxy)-chroman-3-ol] the value was more than 30 µM.
